Test results as given in the NIST ThermoML archive (doi:10.1021/acs.jced.8b00725).
± gives the expanded uncertainty stated by the source.

Conditions: 100 kPa, Liquid, Vibrating tube method

| SMILES | mass density (293.15 K) | mass density (298.15 K) | mass density (303.15 K) | mass density (308.15 K) | mass density (313.15 K) | mass density (318.15 K) | mass density (323.15 K) | mass density (328.15 K) | mass density (333.15 K) | mass density (338.15 K) | mass density (343.15 K) | mass density (348.15 K) | mass density (353.15 K) |
| --- | --- | --- | --- | --- | --- | --- | --- | --- | --- | --- | --- | --- | --- |
| CCC(=O)[O-].OCC[NH+](CCO)CCO [triethanolammonium propanoate] | 1139.53 ± 7 kg/m3 | 1136.51 ± 7 kg/m3 | 1133.47 ± 7 kg/m3 | 1130.43 ± 6.9 kg/m3 | 1127.31 ± 6.9 kg/m3 | 1124.25 ± 6.9 kg/m3 | 1121.15 ± 6.8 kg/m3 | 1118.01 ± 6.8 kg/m3 | 1114.84 ± 6.7 kg/m3 | 1111.68 ± 6.7 kg/m3 | 1108.5 ± 6.7 kg/m3 | 1105.29 ± 6.6 kg/m3 | 1102.06 ± 6.6 kg/m3 |
| CCN(CC)CC.O=C(O)c1ccccc1O [triethylammonium salicylate] | 1099.07 ± 8.5 kg/m3 | 1095.79 ± 8.4 kg/m3 | 1092.57 ± 8.3 kg/m3 | 1089.33 ± 8.3 kg/m3 | 1086.08 ± 8.2 kg/m3 | 1082.83 ± 8.2 kg/m3 | 1079.58 ± 8.2 kg/m3 | 1076.35 ± 8.1 kg/m3 | 1073.13 ± 8.1 kg/m3 | 1069.93 ± 8 kg/m3 | 1066.73 ± 8 kg/m3 | 1063.54 ± 7.9 kg/m3 | 1060.36 ± 7.9 kg/m3 |
| O=S(=O)(O)O.OCCN(CCO)CCO [triethanolammonium hydrogen sulfate] |  |  |  |  |  |  | 1421.3 ± 14 kg/m3 | 1418.8 ± 14 kg/m3 | 1416.33 ± 14 kg/m3 | 1413.85 ± 14 kg/m3 | 1411.31 ± 14 kg/m3 | 1408.87 ± 14 kg/m3 | 1406.37 ± 14 kg/m3 |
| CC[NH+](CC)CC.O=C([O-])c1ccccc1 [triethylammonium benzoate] | 1101.47 ± 8.5 kg/m3 | 1098.02 ± 8.4 kg/m3 | 1094.65 ± 8.4 kg/m3 | 1091.27 ± 8.3 kg/m3 | 1087.87 ± 8.3 kg/m3 | 1084.47 ± 8.2 kg/m3 | 1081.07 ± 8.2 kg/m3 | 1077.68 ± 8.1 kg/m3 | 1074.3 ± 8.1 kg/m3 | 1070.92 ± 8 kg/m3 | 1067.55 ± 8 kg/m3 | 1064.18 ± 7.9 kg/m3 | 1060.82 ± 7.9 kg/m3 |
| CC[NH+](CC)CC.CS(=O)(=O)[O-] [triethylammonium methanesulfonate] | 1120.47 ± 8.8 kg/m3 | 1117.11 ± 8.7 kg/m3 | 1113.77 ± 8.7 kg/m3 | 1110.44 ± 8.6 kg/m3 | 1107.13 ± 8.6 kg/m3 | 1103.83 ± 8.5 kg/m3 | 1100.54 ± 8.5 kg/m3 | 1097.26 ± 8.4 kg/m3 | 1093.99 ± 8.4 kg/m3 | 1090.72 ± 8.3 kg/m3 | 1087.47 ± 8.3 kg/m3 | 1084.22 ± 8.2 kg/m3 | 1080.98 ± 8.2 kg/m3 |
| CC[NH+](CC)CC.O=C([O-])C(F)(F)F [triethylammonium trifluoroacetate] | 1165.69 ± 9.5 kg/m3 | 1161.57 ± 9.5 kg/m3 | 1157.44 ± 9.4 kg/m3 | 1153.32 ± 9.3 kg/m3 | 1149.21 ± 9.3 kg/m3 | 1145.1 ± 9.2 kg/m3 | 1141 ± 9.1 kg/m3 | 1136.91 ± 9.1 kg/m3 | 1132.82 ± 9 kg/m3 | 1128.74 ± 8.9 kg/m3 | 1124.67 ± 8.9 kg/m3 | 1120.6 ± 8.8 kg/m3 | 1116.54 ± 8.7 kg/m3 |
| CCN(CC)CC.O=P(O)(O)O [triethylammonium dihydrogen phosphate] |  |  |  |  |  |  |  |  |  | 1329.48 ± 12 kg/m3 | 1327.08 ± 12 kg/m3 | 1324.69 ± 12 kg/m3 | 1322.31 ± 12 kg/m3 |
| CC[NH2+]CC.O=C([O-])C(F)(F)F [diethylammonium trifluoroacetate] |  |  |  |  |  |  | 1158.82 ± 9.4 kg/m3 | 1154.74 ± 9.3 kg/m3 | 1150.69 ± 9.3 kg/m3 | 1146.65 ± 9.2 kg/m3 | 1142.62 ± 9.2 kg/m3 | 1138.55 ± 9.1 kg/m3 | 1134.5 ± 9 kg/m3 |
| O=C(O)c1ccccc1O.OCCN(CCO)CCO [triethanolammonium salicylate] |  |  |  |  |  |  |  | 1248.43 ± 11 kg/m3 | 1245.42 ± 11 kg/m3 | 1242.4 ± 11 kg/m3 | 1239.42 ± 11 kg/m3 | 1236.44 ± 11 kg/m3 | 1233.42 ± 11 kg/m3 |
| CC[NH2+]CC.O=S(=O)([O-])O [diethylammonium hydrogen sulfate] | 1382.76 ± 13 kg/m3 | 1379.53 ± 13 kg/m3 | 1376.33 ± 13 kg/m3 | 1373.15 ± 13 kg/m3 | 1369.99 ± 13 kg/m3 | 1366.85 ± 13 kg/m3 | 1363.73 ± 13 kg/m3 | 1360.62 ± 13 kg/m3 | 1357.53 ± 13 kg/m3 | 1354.45 ± 13 kg/m3 | 1351.38 ± 13 kg/m3 | 1348.31 ± 13 kg/m3 | 1345.25 ± 13 kg/m3 |
| CC(=O)O.CCN(CC)CC [triethylammonium acetate] | 1013.29 ± 7.2 kg/m3 | 1009.63 ± 7.1 kg/m3 | 1005.87 ± 7 kg/m3 | 1002.1 ± 7 kg/m3 | 998.33 ± 6.9 kg/m3 | 994.55 ± 6.9 kg/m3 | 990.75 ± 6.8 kg/m3 | 986.96 ± 6.8 kg/m3 | 983.14 ± 6.7 kg/m3 | 979.32 ± 6.7 kg/m3 | 975.48 ± 6.6 kg/m3 | 971.62 ± 6.6 kg/m3 | 967.74 ± 6.5 kg/m3 |
| CC[NH+](C)C.O=C([O-])C(F)(F)F [N,N-dimethyl-N-ethylammonium trifluoroacetate] | 1212.41 ± 10 kg/m3 | 1208.11 ± 10 kg/m3 | 1203.82 ± 10 kg/m3 | 1199.56 ± 10 kg/m3 | 1195.28 ± 10 kg/m3 | 1191.03 ± 10 kg/m3 | 1186.78 ± 9.9 kg/m3 | 1182.54 ± 9.8 kg/m3 | 1178.33 ± 9.8 kg/m3 | 1174.09 ± 9.7 kg/m3 | 1169.9 ± 9.6 kg/m3 | 1165.69 ± 9.5 kg/m3 | 1161.51 ± 9.5 kg/m3 |
| CC[NH+](CC)CC.O=S(=O)([O-])C(F)(F)F [triethylammonium trifluoromethanesulfonate] | 1268.63 ± 11 kg/m3 | 1264.56 ± 11 kg/m3 | 1260.51 ± 11 kg/m3 | 1256.47 ± 11 kg/m3 | 1252.45 ± 11 kg/m3 | 1248.45 ± 11 kg/m3 | 1244.46 ± 11 kg/m3 | 1240.48 ± 11 kg/m3 | 1236.53 ± 11 kg/m3 | 1232.58 ± 11 kg/m3 | 1228.65 ± 11 kg/m3 | 1224.73 ± 11 kg/m3 | 1220.84 ± 10 kg/m3 |
| CC[NH2+]CC.CS(=O)(=O)[O-] [diethylammonium methanesulfonate] |  |  |  |  |  |  |  |  | 1117.5 ± 8.8 kg/m3 | 1114.27 ± 8.7 kg/m3 | 1111.06 ± 8.7 kg/m3 | 1107.86 ± 8.6 kg/m3 | 1104.68 ± 8.5 kg/m3 |
